Data as given in patent US11666658B2, “Rifamycin analogs and antibody-drug conjugates thereof” (Regeneron Pharmaceuticals, Inc., priority 2018, dated 2023).
≈ marks a conversion by molar mass, not a printed value.

Assays:
[1] = test system: intracellular S. aureus NRS384 in THP-1 macrophages; test: Intracellular killing assay 2 (rifamycin analogs, S. aureus in THP-1 macrophages); assay type: cell-based, Staphylococcus aureus; conditions: Staphylococcus aureus, NRS384, 2 h; lowest concentration giving intracellular S. aureus below limit of detection (50 cfu/mL) in THP-1 macrophages; median of at least two experiments; read-out: S. aureus Intracellular killing MIC
Method: THP-1 monocytic cell line was grown in media (RMPI+10% FBS+1% Penicillin/Streptomycin), then seeded at a density of 1e5 cells/well in a 96 well plate and differentiated into macrophages for three days prior to infection using 200 nM PMA. An overnight culture of S. aureus NRS384 was grown in RPMI, washed twice with PBS and resuspended at 1e7 cfu/mL in PBS. THP-1 were washed with warm media (RMPI without FBS) to remove the Penicillin/Streptomycin and then infected with the S. aureus suspension at a multiplicity of infection of 10:1 (S. aureus: macrophages). Plates were spun at 300×g for 5 minutes to synchronize adhesion of the bacteria, then incubated at 37° C. for 2 hours. Free-floating bacteria were removed by washing 2× with warm media and remaining extracellular S. aureus were killed by addition of media containing gentamicin (50 ug/mL). […] The compounds were added in media containing 50 µg/mL gentamicin to prevent extracellular growth of S. aureus. After 2 hours, plates were washed 2× with warm RPMI without FBS, and 100 ul of THP-1 lysis buffer (0.1% Triton in PBS) was added to each well. S. aureus survival was enumerated by colony forming units through serial dilution and plating onto TSA.
The intracellular MIC value indicated represents the median value of at least two independent experiments, unless indicated otherwise.

S. aureus NRS384 = test: Broth minimum inhibitory concentration (MIC) assay 2; assay type: cell-based, Staphylococcus aureus; conditions: Staphylococcus aureus; S. aureus NRS384 in TSB, 24 hours at 37° C., OD600; median of at least two independent experiments; read-out: S. aureus Broth MIC
Method: To test the potency of rifamycin analogs of the disclosure in vitro, a broth growth inhibition assay was developed. For the assay, S. aureus NRS384 was grown in Tryptic Soy Broth (TSB) overnight, then sub-cultured 1:50 in fresh TSB and grown for an additional two hours. The culture was then pelleted via centrifugation and washed twice in PBS. The culture was then diluted to 1×10^6 cfu/mL in TSB and 100 μL of the suspension was added per well to a 2 mL dilution plate in triplicate. […] The plates were sealed and incubated at 37° C. with shaking for 24 hours, then 150 μL of each sample was added to 96 well microtiter plates and the OD600 nm was read on a Spectramax i3 Minimax 300.
The broth MIC experiments were assessed in at least two independent experiments and the median value is captured below unless indicated otherwise.

MIC (S. aureus NRS384)	SMILES	MIC [1]
0.00391 µM (≈ 0.00364 µg/mL)	CO[C@H]1/C=C/O[C@@]2(C)Oc3c(C)c(O)c4c(=O)c(c5oc6cc(OCCN7CCOCC7)cc(O)c6nc-5c4c3C2=O)NC(=O)/C(C)=C\C=C\[C@H](C)[C@H](O)[C@@H](C)[C@@H](O)[C@@H](C)[C@H](OC(C)=O)[C@@H]1C [Analog 29g]	0.2 µM (≈ 0.186 µg/mL)
0.00391 µM (≈ 0.00352 µg/mL)	CO[C@H]1/C=C/O[C@@]2(C)Oc3c(C)c(O)c4c(=O)c(c5oc6cc(OCCN(C)C(C)=O)ccc6nc-5c4c3C2=O)NC(=O)/C(C)=C\C=C\[C@H](C)[C@H](O)[C@@H](C)[C@@H](O)[C@@H](C)[C@H](OC(C)=O)[C@@H]1C [Analog 16z]	> 1 µM
0.00244 µM (≈ 0.0022 µg/mL)	CO[C@H]1/C=C/O[C@@]2(C)Oc3c(C)c(O)c4c(=O)c(c5oc6cc(OCCNC(C)=O)cc(O)c6nc-5c4c3C2=O)NC(=O)/C(C)=C\C=C\[C@H](C)[C@H](O)[C@@H](C)[C@@H](O)[C@@H](C)[C@H](OC(C)=O)[C@@H]1C [Analog 29i]	0.2 µM (≈ 0.18 µg/mL)
0.00391 µM (≈ 0.00351 µg/mL)	CO[C@H]1/C=C/O[C@@]2(C)Oc3c(C)c(O)c4c(=O)c(c5oc6cc(OCC7CCCN7C)ccc6nc-5c4c3C2=O)NC(=O)/C(C)=C\C=C\[C@H](C)[C@H](O)[C@@H](C)[C@@H](O)[C@@H](C)[C@H](OC(C)=O)[C@@H]1C (some centres unmarked) [Analog 16l]	1 µM (≈ 0.898 µg/mL)
0.00391 µM (≈ 0.00357 µg/mL)	CO[C@H]1/C=C/O[C@@]2(C)Oc3c(C)c(O)c4c(=O)c(c5oc6cc(OCCN7CCCCC7)ccc6nc-5c4c3C2=O)NC(=O)/C(C)=C\C=C\[C@H](C)[C@H](O)[C@@H](C)[C@@H](O)[C@@H](C)[C@H](OC(C)=O)[C@@H]1C [Analog 16m]	1 µM (≈ 0.912 µg/mL)
0.0625 µM (≈ 0.0561 µg/mL)	CO[C@H]1/C=C/O[C@@]2(C)Oc3c(C)c(O)c4c(=O)c(c5oc6cc(OCC7CCN(C)C7)ccc6nc-5c4c3C2=O)NC(=O)/C(C)=C\C=C\[C@H](C)[C@H](O)[C@@H](C)[C@@H](O)[C@@H](C)[C@H](OC(C)=O)[C@@H]1C (some centres unmarked) [Analog 16j]	1 µM (≈ 0.898 µg/mL)
0.00391 µM (≈ 0.00368 µg/mL)	CO[C@H]1/C=C/O[C@@]2(C)Oc3c(C)c(O)c4c(=O)c(c5oc6cc(OCCN7CC8CCC7C8)cc(O)c6nc-5c4c3C2=O)NC(=O)/C(C)=C\C=C\[C@H](C)[C@H](O)[C@@H](C)[C@@H](O)[C@@H](C)[C@H](OC(C)=O)[C@@H]1C [Analog 29d]	0.04 µM (≈ 0.0376 µg/mL)
0.0625 µM (≈ 0.0563 µg/mL)	CCN(CC)CCOc1ccc2nc3c4c5c6c(C)c(O)c4c(=O)c(c-3oc2c1)NC(=O)/C(C)=C\C=C\[C@H](C)[C@H](O)[C@@H](C)[C@@H](O)[C@@H](C)[C@H](OC(C)=O)[C@H](C)[C@@H](OC)/C=C/O[C@@](C)(O6)C5=O [Analog 16t]	1 µM (≈ 0.9 µg/mL)
0.0156 µM (≈ 0.0145 µg/mL)	CO[C@H]1/C=C/O[C@@]2(C)Oc3c(C)c(O)c4c(=O)c(c5oc6cc(OCCN7CCN(C)CC7)ccc6nc-5c4c3C2=O)NC(=O)/C(C)=C\C=C\[C@H](C)[C@H](O)[C@@H](C)[C@@H](O)[C@@H](C)[C@H](OC(C)=O)[C@@H]1C [Analog 16h]	1 µM (≈ 0.927 µg/mL)

Further lines, the compound ahead of its results:

SMILES	MIC (S. aureus NRS384)	MIC [1]
CO[C@H]1/C=C/O[C@@]2(C)Oc3c(C)c(O)c4c(=O)c(c5oc6cc(OCCN7CCC7)ccc6nc-5c4c3C2=O)NC(=O)/C(C)=C\C=C\[C@H](C)[C@H](O)[C@@H](C)[C@@H](O)[C@@H](C)[C@H](OC(C)=O)[C@@H]1C [Analog 16z-1]	0.00391 µM (≈ 0.00346 µg/mL)	1 µM (≈ 0.884 µg/mL)
CO[C@H]1/C=C/O[C@@]2(C)Oc3c(C)c(O)c4c(=O)c(c5oc6ccc(OCCN(C)C)cc6nc-5c4c3C2=O)NC(=O)/C(C)=C\C=C\[C@H](C)[C@H](O)[C@@H](C)[C@@H](O)[C@@H](C)[C@H](OC(C)=O)[C@@H]1C [Analog 38]	0.0625 µM (≈ 0.0545 µg/mL)	1 µM (≈ 0.872 µg/mL)
CO[C@H]1/C=C/O[C@@]2(C)Oc3c(C)c(O)c4c(=O)c(c5oc6cc(OCCN(C)C)c(Cl)cc6nc-5c4c3C2=O)NC(=O)/C(C)=C\C=C\[C@H](C)[C@H](O)[C@@H](C)[C@@H](O)[C@@H](C)[C@H](OC(C)=O)[C@@H]1C [Analog 48]	0.0156 µM (≈ 0.0141 µg/mL)	1 µM (≈ 0.906 µg/mL)
CO[C@H]1/C=C/O[C@@]2(C)Oc3c(C)c(O)c4c(=O)c(c5oc6cc(OCCN(C)C)cc(Cl)c6nc-5c4c3C2=O)NC(=O)/C(C)=C\C=C\[C@H](C)[C@H](O)[C@@H](C)[C@@H](O)[C@@H](C)[C@H](OC(C)=O)[C@@H]1C [Analog 45]	0.00391 µM (≈ 0.00354 µg/mL)	1 µM (≈ 0.906 µg/mL)
